Measured values as given in patent publication US12173026B2, “PRMT5 inhibitors” (Merck Sharp & Dohme LLC, priority 2018, dated 2024).

Test system: symmetric dimethylation of arginine (SDMA) of PRMT5 substrates in MCF-7 cells
Experiment: PRMT5 Cell Target Engagement (TE) Assay
Assay type: cell-based
Settings: Homo sapiens, MCF7, 72 h; MCF-7 cells treated for 3 days; nuclear SDMA by high content imaging; top concentration 10000 nM
Text: PRMT5 Cell Target Engagement (TE) Assay
The PRMT5 TE assay is a biomarker assay for identifying compounds that inhibit symmetric dimethylation of arginine (SDMA) of PRMT5 substrates. The following substrates have been reported for PRMT5: Histone H2A and H4 R3, Histone H3 R2, Histone 1-13 R8, spliceosome Sm proteins, ribosomal protein RPS10, p53, FEN1, nucleoplasmin, nucleolin, EGFR and EBNA. The assay will focus on detecting symnetrically dimethylated nuclear proteins using high content imaging technology. Detection of the expression of symmetrically dimethylated nuclear proteins is through a mixture of primary rabbit monoclonal antibodies to SDMA (CST 13222) which in turn recognized by an Alexafluor 488 dye-conjugated anti-rabbit IgG secondary antibody. The IN Cell Analyzer 2200 or Opera-Phenix measures nuclear Alexafluor 488 fluorescent dye intensity that is directly related to the level of expression of symmetrically dimethylated nuclear proteins at the single cell level. Nuclear AF488 dye intensities are compared to the mean value for DMSO treated cells (MIN) to report percent of inhibition for each compound-treated well.
In this assay, the cell potency (EC50) of each compound was determined from a ten point (1:3 serial dilution; top compound concentration of 10000 nM) titration curve using the following outlined procedure. Each well of a BD falcon collagen coated black/clear bottom 384-well plate was seeded with 4000 MCF-7 cells in 30 pal media and allowed to attach for 5 hours. Media is ATCC-formulated Eagle's Minimum Essential Medium, Catalog No. 30-2003. The following components were added to the base medium: 0.01 mg/mL human recombinant insulin; fetal bovine serum to a final concentration of 10%. Additional 30 pal of media containing 2× compounds were added to each well. Cells were treated for 3 days in 37° C. CO2 incubator. On day 3, cells were fixed with Cytofix, permeabilized with 0.4% Triton-X-100/Cytofix, and washed with D-PBS without Ca/Mg. Cells were blocked with Licor Odessey blocking reagent for 1 hour at room temperature, followed by incubation with anti-SDMA (1:1000) antibody at 4° C. overnight. 1° antibody was removed, followed by three washings with DPBS without Ca/Mg and 0.05% Tween20. Hoechst (5 μg/mL), Cell Mask deep stain (1:2000) and Alexa488-conjugated goat anti-rabbit IgG (2 μg/mL) was added for 1 hour at room temperature. A final washing step (three washes) was performed before sealing plate for imaging on in Cell Analyzer 2200 or Opera-Phenix. Images from analyzer were uploaded to Columbus for image analysis. IC50 values were determined by 4 parameters robust fit of percent fluorescence units vs. (Log 10) compound concentrations.

Question: Nc1ncnc2c1ccn2[C@@H]1O[C@@H]2[C@@H](Oc3ccc4ccc(NCC(F)(F)F)nc4c3)CC[C@]2(O)[C@H]1O [Example 57, (2R,3R,3aS,6S,6aR)-2-(4-amino-7H-pyrrolo[2,3-d]pyrimidin-7-yl)-6-((2-((2,2,2-trifluoroethyl)amino)quinolin-7-yl)oxy)hexahydro-3aH-cyclopenta[b]furan-3,3a-diol] was tested. Which EC50 did it give?
Answer: 2.1 nM

Question: Which EC50 does the source give for Nc1nc2cc(O[C@H]3CC[C@@]4(O)[C@@H]3O[C@@H](n3ccc5c(N)ncnc53)[C@@H]4O)ccc2cc1F [Example 71, (2R,3R,3aS,6S,6aR)-6-((2-amino-3-fluoroquinolin-7-yl)oxy)-2-(4-amino-7H-pyrrolo[2,3-d]pyrimidin-7-yl)hexahydro-3aH-cyclopenta[b]furan-3,3a-diol] here?
Answer: 9 nM

Question: Which EC50 does the source give for Cc1cc2ccc(OC[C@H]3C[C@@H](n4ccc5c(C)ncnc54)[C@H](O)[C@]3(C)O)cc2nc1N [Example 106, (1R,2S,3R,5R)-5-(((2-amino-3-methylquinolin-7-yl)oxy)methyl)-1-methyl-3-(4-methyl-7H-pyrrolo[2,3-d]pyrimidin-7-yl)cyclopentane-1,2-diol] here?
Answer: 0.5 nM

Question: For Cc1cn([C@@H]2C[C@@H]3[C@H](Cc4cc(F)c5cc(F)c(N)nc5c4)CC[C@]3(O)[C@H]2O)c2ncnc(N)c12 [Example 35, (1S,2R,3aR,4S,6aR)-4-[(2-amino-3,5-difluoroquinolin-7-yl)methyl]-2-(4-amino-5-methyl-7H-pyrrolo[2,3-d]pyrimidin-7-yl)hexahydropentalene-1,6a(1H)-diol], which EC50 is on record?
Answer: 0.8 nM

Question: Cc1ncnc2c1ccn2[C@@H]1C[C@@H]2[C@H](Cc3ccc4cc(Cl)c(N)nc4c3)CC[C@]2(O)[C@H]1O [Example 17, (1S,2R,3aR,4S,6aR)-4-((2-amino-3-chloroquinolin-7-yl)methyl)-2-(4-methyl-7H-pyrrolo[2,3-d]pyrimidin-7-yl)hexahydropentalene-1,6a(1H)-diol] was tested. Which EC50 did it give?
Answer: 0.9 nM

Question: With C[C@]1(COc2ccc3cccnc3c2)O[C@@H](n2ccc3c(N)ncnc32)[C@H](O)[C@@H]1O [Example 98, (2R,3S,4R,5R)-5-(4-amino-7H-pyrrolo[2,3-d]pyrimidin-7-yl)-2-methyl-2-((quinolin-7-yloxy)methyl)tetrahydrofuran-3,4-diol] as the compound, how does the EC50 read?
Answer: 272 nM

Question: With Nc1nc2cc(C[C@@H]3CC[C@@]4(O)[C@@H]3O[C@@H](n3ccc5c(N)ncnc53)[C@@H]4O)ccc2cc1Br [Example 9, (2R,3R,3aS,6S,6aR)-6-((2-amino-3-bromoquinolin-7-yl)methyl)-2-(4-amino-7H-pyrrolo[2,3-d]pyrimidin-7-yl)hexahydro-2H-cyclopenta[b]furan-3,3a-diol] as the compound, how does the EC50 read?
Answer: 1.3 nM

Question: Nc1nc2cc(O[C@H]3CC[C@@]4(O)[C@@H]3O[C@@H](n3ccc5c(CO)ncnc53)[C@@H]4O)ccc2cc1Br [Example 77, (2R,3R,3aS,6S,6aR)-6-[(2-amino-3-bromoquinolin-7-yl)oxy]-2-[4-(hydroxymethyl)-7H-pyrrolo[2,3-d]pyrimidin-7-yl]hexahydro-3aH-cyclopenta[b]furan-3,3a-diol] was tested. Which EC50 did it give?
Answer: 186 nM

Question: With Cc1ncnc2c1ccn2[C@@H]1O[C@@H]2[C@@H](Cc3ccc4cc(Br)c(N)nc4c3)OC[C@]2(O)[C@H]1O [Example 134, (2R,3R,3aS,6R,6aR)-6-((2-amino-3-bromoquinolin-7-yl)methyl)-2-(4-methyl-7H-pyrrolo[2,3-d]pyrimidin-7-yl)tetrahydrofuro[3,4-b]furan-3,3a(4H)-diol] as the compound, how does the EC50 read?
Answer: 35.8 nM

Question: Cc1ncnc2c1ccn2[C@@H]1C[C@@H]2[C@H](Cc3ccc4cc(F)c(N)nc4c3)CC[C@]2(O)[C@H]1O [Example 16, (1S,2R,3aR,4S,6aR)-4-((2-amino-fluoroquinolin-7-yl)methyl)-2-(4-methyl-7H-pyrrolo[2,3-d]pyrimidin-7-yl)hexahydropentalene-1,6a(1H)-diol] was tested. Which EC50 did it give?
Answer: 0.9 nM

Question: For Cc1cn([C@@H]2O[C@@H]3[C@H](Cc4ccc5cc(Br)c(N)nc5c4)CC[C@]3(O)[C@H]2O)c2ncnc(N)c12 [Example 70, (2R,3R,3aS,6S,6aR)-6-((2-amino-3-bromoquinolin-7-yl)methyl)-2-(4-amino-5-methyl-7H-pyrrolo[2,3-d]pyrimidin-7-yl)hexahydro-3aH-cyclopenta[b]furan-3,3a-diol 2,2,2-trifluoroacetate], which EC50 is on record?
Answer: 1 nM

Question: With Nc1nc2cc(CC3OC[C@@]4(O)C3C[C@@H](n3ccc5c(N)ncnc53)[C@@H]4O)ccc2cc1Br (stereo partly shown) [Example 132] as the compound, how does the EC50 read?
Answer: 236 nM

Question: Cc1cn([C@@H]2C[C@@H]3[C@H](Cc4cc(F)c5cc(Cl)c(N)nc5c4)CC[C@]3(O)[C@H]2O)c2ncnc(N)c12 [Example 36, (1S,2R,3aR,4S,6aR)-4-[(2-amino-3-chloro-5-fluoroquinolin-7-yl)methyl]-2-(4-amino-5-methyl-7H-pyrrolo[2,3-d]pyrimidin-7-yl)hexahydropentalene-1,6a(1H)-diol] was tested. Which EC50 did it give?
Answer: 1.4 nM

Question: Which EC50 does the source give for Cc1cn([C@@H]2O[C@@H]3[C@H](Cc4ccc5cc(F)c(N)nc5c4)CC[C@]3(O)[C@H]2O)c2ncnc(N)c12 [Example 62, (2R,3R,3aS,6S,6aR)-6-((2-amino-3-fluoroquinolin-7-yl)methyl)-2-(4-amino-5-methyl-7H-pyrrolo[2,3-d]pyrimidin-7-yl)hexahydro-3aH-cyclopenta[b]furan-3,3a-diol 2,2,2-trifluoroacetate] here?
Answer: 3.7 nM

Question: Which EC50 does the source give for Nc1nc2cc(C[C@@H]3CC[C@@]4(O)[C@@H]3O[C@@H](n3cc(F)c5c(N)ncnc53)[C@@H]4O)ccc2cc1Cl [Example 68, (2R,3R,3aS,6S,6aR)-6-((2-amino-3-chloroquinolin-7-yl)methyl)-2-(4-amino-5-fluoro-7H-pyrrolo[2,3-d]pyrimidin-7-yl)hexahydro-3aH-cyclopenta[b]furan-3,3a-diol] here?
Answer: 1.1 nM

Question: With Cc1nc(N)c2ccn([C@@H]3C[C@@H]4[C@H](Cc5ccc6cc(Cl)c(N)nc6c5)CC[C@]4(O)[C@H]3O)c2n1 [Example 31, (1S,2R,3aR,4S,6aR)-2-(4-amino-2-methyl-7H-pyrrolo[2,3-d]pyrimidin-7-yl)-4-((2-amino-3-chloroquinolin-7-yl)methyl) hexahydropentalene-1,6a(1H)-diol 2,2,2-trifluoroacetate] as the compound, how does the EC50 read?
Answer: 0.8 nM

Question: Which EC50 does the source give for C[C@@]1(O)[C@@H](COc2ccc3cccnc3c2)O[C@@H](n2ccc3c(N)ncnc32)[C@@H]1O [Example 99, (2R,3S,4R,5R)-5-(4-amino-7H-pyrrolo[2,3-d]pyrimidin-7-yl)-3-methyl-2-((quinolin-7-yloxy)methyl)tetrahydrofuran-3,4-diol] here?
Answer: 202 nM

Question: How did the EC50 turn out when Nc1nc2cc(O[C@H]3CC[C@@]4(O)[C@@H]3O[C@@H](n3cc(C5CC5)c5c(N)ncnc53)[C@@H]4O)ccc2cc1Br [Example 52, (2R,3R,3aS,6S,6aR)-6-[(2-amino-3-bromoquinolin-7-yl)oxy]-2-(4-amino-5-cyclopropyl-7H-pyrrolo[2,3-d]pyrimidin-7-yl)hexahydro-3aH-cyclopenta[b]furan-3,3a-diol] was run?
Answer: 75.5 nM

Question: How did the EC50 turn out when C#C[C@@]1(O)[C@@H](COc2ccc3cc(Br)c(N)nc3c2)O[C@@H](n2ccc3c(N)ncnc32)[C@@H]1O [Example 3, (2R,3S,4R,5R)-2-(((2-amino-3-bromoquinolin-7-yl)oxy)methyl)-5-(4-amino-7H-pyrrolo[2,3-d]pyrimidin-7-yl)-3-ethynyltetrahydrofuran-3,4-diol] was run?
Answer: 20 nM

Question: For Nc1nc2cc(C[C@@H]3CC[C@@]4(O)[C@@H]3C[C@@H](n3cc(F)c5c(N)ncnc53)[C@@H]4O)ccc2cc1Cl [Example 34, (1S,2R,3aR,4S,6aR)-4-((2-amino-3-chloroquinolin-7-yl)methyl)-2-(4-amino-5-fluoro-7H-pyrrolo[2,3-d]pyrimidin-7-yl)hexahydropentalene-1,6a(1H)-diol], which EC50 is on record?
Answer: 0.3 nM

Question: How did the EC50 turn out when Nc1nc2cc(C[C@@H]3CC[C@@]4(O)[C@@H]3O[C@@H](n3ccc5c(N)ncnc53)[C@@H]4O)ccc2cc1C(F)(F)F [Example 76, (2R,3R,3aS,6S,6aR)-6-((2-amino-3-(trifluoromethyl)quinolin-7-yl)methyl)-2-(4-amino-7H-pyrrolo[2,3-d]pyrimidin-7-yl)hexahydro-3aH-cyclopenta[b]furan-3,3a-diol] was run?
Answer: 8.6 nM

Question: For Nc1nc2cc(O[C@H]3CC[C@@]4(O)[C@@H]3O[C@@H](n3ccc5cncnc53)[C@@H]4O)ccc2cc1Br [Example 85, (2R,3R,3aS,6S,6aR)-6-((2-amino-3-bromoquinolin-7-yl)oxy)-2-(7H-pyrrolo[2,3-d]pyrimidin-7-yl)hexahydro-3aH-cyclopenta[b]furan-3,3a-diol], which EC50 is on record?
Answer: 32.4 nM
